Experimental data published in patent publication US20100041657A1, “HALOALKYLSULFONE SUBSTITUTED COMPOUNDS USEFUL FOR TREATING OBESITY AND DIABETES” (NOVO NORDICK A/S, priority 2005, published 2010).
“And” between values parts separate entries of the source, which are not always exact repeats. Identical values can stand only once.

Row | SMILES | melting point
1 | O=C(Nc1ccc(SC(F)(F)F)cc1)c1cc(S(=O)(=O)c2ccccc2)c2ccccc2c1O [Example 22, 4-Benzenesulfonyl-1-hydroxy-naphthalene-2-carboxylic acid (4-trifluoromethylsulfanyl-phenyl)-amide] | 271 to 272 °C
2 | O=C(Nc1ccc(S(=O)(=O)C(F)(F)F)cc1Cl)c1c(O)c(C23CC4CC(CC(C4)C2)C3)cc2c1CCC2 [Example 30, 6-Adamantan-1-yl-5-hydroxy-indan-4-carboxylic acid (2-chloro-4-trifluoromethanesulfonyl-phenyl)-amide] | 218 to 219 °C
3 | CC(C)(C)c1cc2c(c(C(=O)Nc3ccc(S(=O)(=O)C(F)(F)F)cc3Cl)c1O)CCO2 [Example 94, 6-tert-Butyl-5-hydroxy-2,3-dihydro-benzofuran-4-carboxylic acid (2-chloro-4-trifluoromethanesulfonyl-phenyl)-amide] | 201 to 202 °C
4 | O=C(Nc1ccc(S(=O)(=O)C(F)(F)F)cc1Cl)c1cc([S+]([O-])c2ccc(F)cc2)c2ccccc2c1O (stereo not shown) [Example 33, 4-(4-Fluoro-benzenesulfinyl)-1-hydroxy-naphthalene-2-carboxylic acid (2-chloro-4-trifluoromethanesulfonyl-phenyl)-amide] | 198 to 199.5 °C
5 | CC(C)(C)c1cc2c(c(C(=O)Nc3ccc(S(=O)(=O)C(F)(F)F)cc3Cl)c1O)CCCC2 [Example 50, 3-tert-Butyl-2-hydroxy-5,6,7,8-tetrahydro-naphthalene-1-carboxylic acid (2-chloro-4-trifluoromethanesulfonyl-phenyl)-amide] | 151 °C
6 | O=C(Nc1ccc(SC(F)(F)F)cc1)c1ccc2c(c1O)CCCC2 [Example 21, 1-Hydroxy-5,6,7,8-tetrahydro-naphthalene-2-carboxylic acid (4-trifluoromethylsulfanyl-phenyl)-amide] | 167 °C
7 | CC(C)(C)c1cc(C(C)(C)C)c(O)c(C(=O)Nc2ccc(S(=O)(=O)C(F)(F)F)cc2Cl)c1O [Example 100, 3,5-Di-tert-butyl-N-(2-chloro-4-trifluoromethanesulfonyl-phenyl)-2,6-dihydroxy-benzamide] | 149 to 150 °C
8 | COc1cc(C(C)(C)C)c(O)c(C(=O)Nc2ccc(S(=O)(=O)C(F)(F)F)cc2Cl)c1O [Example 97, 3-tert-Butyl-N-(2-chloro-4-trifluoromethanesulfonyl-phenyl)-2,6-dihydroxy-5-methoxy-benzamide] | 170 to 171 °C
9 | O=C(Nc1ccc(SC(F)(F)F)c(Cl)c1)c1cc(Cl)c2ccccc2c1O [Example 27, 4-Chloro-1-hydroxy-naphthalene-2-carboxylic acid (3-chloro-4-trifluoromethylsulfanyl-phenyl)-amide] | 148 to 149 °C
10 | O=C(Nc1cccc(S(=O)(=O)C(F)(F)F)c1)c1c(O)ccc2ccccc12 [Example 18, 2-Hydroxy-naphthalene-1-carboxylic acid (3-trifluoromethanesulfonyl-phenyl)-amide] | 179 to 180 °C
11 | CC(C)c1ccc(C(C)(C)C)c(O)c1C(=O)Nc1ccc(S(=O)(=O)C(F)(F)F)cc1Cl [Example 54, 3-tert-Butyl-N-(2-chloro-4-trifluoromethanesulfonyl-phenyl)-2-hydroxy-6-isopropyl-benzamide] | 116 to 116.5 °C
12 | O=C(Nc1ccc(S(=O)(=O)C(F)(F)F)cc1Cl)c1c(O)c(C23CC4CC(CC(C4)C2)C3)cc2c1CCCC2 [Example 29] | 205 to 206 °C
13 | CC(C)(C)c1cc2c(c(C(=O)Nc3ccc(S(=O)(=O)C(F)(F)F)cc3Cl)c1O)CCC2 [Example 48, 6-tert-Butyl-5-hydroxy-indan-4-carboxylic acid (2-chloro-4-trifluoromethanesulfonylphenyl)-amide] | 172 to 173 °C
14 | CSc1c(C)cc(O)c(C(=O)Nc2ccc(S(=O)(=O)C(F)(F)F)cc2Cl)c1C [Example 163, N-(2-Chloro-4-trifluoromethanesulfonyl-phenyl)-6-hydroxy-2,4-dimethyl-3-methylsulfanyl-benzamide] | 205 to 206 °C and 201 to 202 °C

The remaining lines, values ahead:

Row | melting point | SMILES
15 | 209 to 212 °C | Cc1cc(C(=O)Nc2ccc(S(=O)(=O)C(F)(F)F)cc2Cl)c(O)c(C(C)(C)C)c1 [Example 26, 3-tert-Butyl-N-(2-chloro-4-trifluoromethanesulfonyl-phenyl)-2-hydroxy-5-methylbenzamide]
16 | 195 to 198 °C | O=C(Nc1ccc(S(=O)(=O)C(F)(F)F)cc1Cl)c1cc(Sc2ccc(F)cc2)c2ccccc2c1O [Example 31, 4-(4-Fluoro-phenylsulfanyl)-1-hydroxy-naphthalene-2-carboxylic acid (2-chloro-4-trifluoromethanesulfonyl-phenyl)-amide]
17 | 172 to 175 °C | O=C(Nc1ccc(SC(F)(F)F)cc1)c1cc(Cl)c2ccccc2c1O [Example 23, 4-Chloro-1-hydroxy-naphthalene-2-carboxylic acid (4-trifluoromethylsulfanyl-phenyl)amide]
18 | 212 to 213 °C | O=C(Nc1cccc(S(=O)(=O)C(F)(F)F)c1)c1cc2ccccc2cc1O [Example 19, 3-Hydroxy-naphthalene-2-carboxylic acid (3-trifluoromethanesulfonyl-phenyl)-amide]
19 | 157 to 158 °C | CCc1c(C(C)(C)C)cc(C(C)(C)C)c(O)c1C(=O)Nc1ccc(S(=O)(=O)C(F)(F)F)cc1Cl [Example 47, 3,5-Di-tert-butyl-N-(2-chloro-4-trifluoromethanesulfonyl-phenyl)-2-ethyl-6-hydroxybenzamide]
20 | 126 to 127 °C | COc1cc(C(=O)Nc2ccc(S(=O)(=O)C(F)(F)F)cc2Cl)c(O)c(C(C)(C)C)c1 [Example 53, 3-tert-Butyl-N-(2-chloro-4-trifluoromethanesulfonyl-phenyl)-2-hydroxy-5-methoxy-benzamide]
21 | 218 to 219 °C (dec.) | Cc1c([S+](C)[O-])cc(C(C)(C)C)c(O)c1C(=O)Nc1ccc(S(=O)(=O)C(F)(F)F)cc1Cl (stereo not shown) [Example 51, 3-tert-Butyl-N-(2-chloro-4-trifluoromethanesulfonyl-phenyl)-2-hydroxy-5-methanesulfinyl-6-methyl-benzamide]
22 | 121 to 122 °C | COc1cc(C(C)(C)C)c(O)c(C(=O)Nc2ccc(S(=O)(=O)C(F)(F)F)cc2Cl)c1C [Example 93, 3-tert-Butyl-N-(2-chloro-4-trifluoromethanesulfonyl-phenyl)-2-hydroxy-5-methoxy-6-methyl-benzamide]
23 | 126 to 127 °C | CCc1ccc(C(C)(C)C)c(O)c1C(=O)Nc1ccc(S(=O)(=O)C(F)(F)F)cc1Cl [Example 46, 3-tert-Butyl-N-(2-chloro-4-trifluoromethanesulfonyl-phenyl)-6-ethyl-2-hydroxybenzamide]
24 | 194 to 195 °C | O=C(Nc1cccc(S(=O)(=O)C(F)(F)F)c1)c1ccc2ccccc2c1O [Example 16, 1-Hydroxy-naphthalene-2-carboxylic acid (3-trifluoromethanesulfonyl-phenyl)-amide]
25 | 114 to 115 °C | CC1(c2cc(-c3ccc(F)cc3F)cc(C(=O)Nc3ccc(S(=O)(=O)C(F)(F)F)cc3Cl)c2O)CCCCC1 [Example 35, 2′,4′-Difluoro-4-hydroxy-5-(1-methyl-cyclohexyl)-biphenyl-3-carboxylic acid (2-chloro-4-trifluoromethanesulfonyl-phenyl)-amide]
26 | 171 to 175 °C | COc1c(O)cc(C(C)(C)C)c(O)c1C(=O)Nc1ccc(S(=O)(=O)C(F)(F)F)cc1Cl [Example 96, 3-tert-Butyl-N-(2-chloro-4-trifluoromethanesulfonyl-phenyl)-2,5-dihydroxy-6-methoxy-benzamide]
27 | 198 to 199 °C | COc1ccc(C(C)(C)C)c(O)c1C(=O)Nc1ccc(S(=O)(=O)C(F)(F)F)cc1Cl [Example 92, 3-tert-Butyl-N-(2-chloro-4-trifluoromethanesulfonyl-phenyl)-2-hydroxy-6-methoxy-benzamide]
28 | 154 °C | O=C(Nc1cccc(SC(F)(F)F)c1)c1ccc2ccccc2c1O [Example 17, 1-Hydroxy-naphthalene-2-carboxylic acid (3-trifluoromethylsulfanyl-phenyl)-amide]
29 | 203 to 204 °C | Cc1cc(C(=O)Nc2ccc(S(=O)(=O)C(F)(F)F)cc2Cl)c(O)c(C23CC4CC(CC(C4)C2)C3)c1 [Example 24, 3-Adamantan-1-yl-N-(2-chloro-4-trifluoromethanesulfonyl-phenyl)-2-hydroxy-5-methyl-benzamide]
30 | 163 to 166 °C | Cc1c(O)cc(C(C)(C)C)c(O)c1C(=O)Nc1ccc(S(=O)(=O)C(F)(F)F)cc1Cl [Example 95, 3-tert-Butyl-N-(2-chloro-4-trifluoromethanesulfonyl-phenyl)-2,5-dihydroxy-6-methylbenzamide]
31 | 177 to 178 °C | O=C(Nc1ccc(S(=O)(=O)C(F)(F)F)cc1Cl)c1cc(-c2ccc(F)cc2F)cc(C23CC4CC(CC(C4)C2)C3)c1O [Example 32, 5-Adamantan-1-yl-2′,4′-difluoro-4-hydroxy-biphenyl-3-carboxylic acid (2-chloro-4-trifluoromethanesulfonyl-phenyl)-amide]
